From ChEMBL document CHEMBL4483862, “Open-source discovery of chemical leads for next-generation chemoprotective antimalarials” (2018)

System: Plasmodium berghei
Experiment: Luciferase/luciferin-expressing antifolate-resistant parasites were used to infect a culture of HepG2 cells that were pre-incubated with compounds. Infected hepatocytes emit light due to the luciferase reaction. Assay results are presented as the percent inhibition of light emission compared to control. […]
Format: functional
Details: sporozoite; for IC90: read-out: LUCIFERASE INFECTION ASSAY - IC90
[1] = read-out: LUCIFERASE INFECTION ASSAY - IC50

Row | Structure (SMILES) | IC90 [µM] | IC50 [1] [µM] | also measured
1 | Cc1ccc(O)c(C(=O)c2c[nH]c(-c3nc4ccccc4[nH]3)c2)c1 | > 10 |  | IC50 (HEPG2TOX_HILL_SLOPE 1.19, HEPG2TOX_R_SQUARED 0.817, PBLUC_HILL_SLOPE 1.99, PBLUC_R_SQUARED 0.294, read-out: LUCIFERASE INFECTION ASSAY - IC50): 3.74 µM
2 | N#Cc1ccc(-c2ccc3nnc(-c4cccc(C(F)(F)F)c4)n3c2)cc1 | 7.29 |  | IC50 (HEPG2TOX_HILL_SLOPE 3.44, HEPG2TOX_R_SQUARED 0.706, PBLUC_HILL_SLOPE 4.37, PBLUC_R_SQUARED 0.179, read-out: LUCIFERASE INFECTION ASSAY - IC50): 4.41 µM
3 | COc1cccc(/C=N/NC(=S)NC2CC3CCC2C3)c1O (centres undefined) | > 10.3 | > 10.3 | 
4 | Cc1c(C(=O)Nc2cccc(Oc3ccccc3)c2)sc(=O)n1Cc1ccncc1 | > 7.9 | > 7.9 | 
5 | O=C(Nc1ccc2c[nH]nc2c1)c1cccc(Oc2ccccc2)c1 | > 10 | > 10 | 
6 | Fc1ccc(-c2csc3ncnc(NCc4ccc(CN5CCOCC5)cc4)c23)cc1 | 7.44 |  | IC50 (HEPG2TOX_HILL_SLOPE 0.615, HEPG2TOX_R_SQUARED 0.878, PBLUC_HILL_SLOPE 1.43, PBLUC_R_SQUARED 0.575, read-out: LUCIFERASE INFECTION ASSAY - IC50): 1.59 µM
7 | Cc1ccc(C(=O)Nc2ccccc2Sc2ncc([N+](=O)[O-])s2)cc1 | > 8.88 |  | IC50 (FFLUC_HILL_SLOPE 77.3, FFLUC_R_SQUARED 0.701, read-out: LUCIFERASE INFECTION ASSAY - IC50): > 8.88 µM
8 | Cc1oc(C(C)(C)C)cc1-c1cc(NC(=O)Nc2ccccc2C#N)n(-c2cc(C(F)(F)F)cc(C(F)(F)F)c2)n1 | 3 |  | IC50 (HEPG2TOX_HILL_SLOPE 5.04, HEPG2TOX_R_SQUARED 0.982, PBLUC_HILL_SLOPE 7.22, PBLUC_R_SQUARED 0.381, read-out: LUCIFERASE INFECTION ASSAY - IC50): 2.22 µM
9 | CCN(c1ccccc1)S(=O)(=O)c1ccc(C(=O)NCC(c2ccccc2OC)N2CCCC2)cc1 (centres undefined) | 3.69 |  | IC50 (HEPG2TOX_HILL_SLOPE 12.4, HEPG2TOX_R_SQUARED 0.631, PBLUC_HILL_SLOPE 22.9, PBLUC_R_SQUARED 0.104, read-out: LUCIFERASE INFECTION ASSAY - IC50): 3.36 µM
10 | OCc1ccc(-c2cnc3ccc(NCc4ccc(F)cc4)nn23)cc1 | 1.24 |  | IC50 (HEPG2TOX_HILL_SLOPE 0.86, HEPG2TOX_R_SQUARED 0.883, PBLUC_HILL_SLOPE 13, PBLUC_R_SQUARED 0.726, read-out: LUCIFERASE INFECTION ASSAY - IC50): 1.05 µM
11 | Cc1ccc2nc(CNc3ccccc3-c3ccccc3)cc(=O)n2c1 | > 10 | > 10 | 
12 | O=c1c2ccccc2cnn1-c1nc2ccccc2[nH]1 | > 10 |  | IC50 (HEPG2TOX_HILL_SLOPE 1.61, HEPG2TOX_R_SQUARED 0.823, PBLUC_HILL_SLOPE 0.454, PBLUC_R_SQUARED 0.451, read-out: LUCIFERASE INFECTION ASSAY - IC50): 4.95 µM
13 | O=C(CNc1ccc(C(F)(F)F)cc1Cl)Nc1cccc(C(=O)NC2CC2)c1 | 7.38 |  | IC50 (PBLUC_HILL_SLOPE 3.94, PBLUC_R_SQUARED 0.579, read-out: LUCIFERASE INFECTION ASSAY - IC50): 4.23 µM
14 | CC(=O)Nc1cc(C(=O)CSc2ncnc3sccc23)ccc1O | > 10 | > 10 | 
15 | Cc1ccc(-n2c(C)nnc2SCCCc2nc(-c3ccccc3)no2)cc1 | > 10 | > 10 | 
16 | Cc1ccc(Sc2ccc(/C=C/C(=O)c3ccc(Cl)c(Cl)c3Cl)cc2[N+](=O)[O-])cc1 | > 10 | > 10 | 
17 | CNc1snc(C)c1C(=O)N(C)Cc1ccccc1OC(F)(F)F | 0.463 |  | IC50 (PBLUC_HILL_SLOPE 12.1, PBLUC_R_SQUARED 0.631, read-out: LUCIFERASE INFECTION ASSAY - IC50): 0.386 µM
18 | Fc1cccc(Nc2cc3c(cn2)ncn3Cc2ccccc2)c1 | > 10 |  | IC50 (HEPG2TOX_HILL_SLOPE 2.72, HEPG2TOX_R_SQUARED 0.764, PBLUC_HILL_SLOPE 2.07, PBLUC_R_SQUARED 0.581, read-out: LUCIFERASE INFECTION ASSAY - IC50): 8.26 µM
19 | CC(C)(C)N1C(=O)CC(=O)CC1c1ccc(Cl)cc1 (centres undefined) | 11.1 | 9.51 | 
20 | O=C(Nc1nonc1-c1ccc(Cl)cc1)C(c1ccccc1)c1ccccc1 | 8.22 |  | IC50 (FFLUC_HILL_SLOPE 3.18, FFLUC_R_SQUARED 0.644, PBLUC_HILL_SLOPE 3.44, PBLUC_R_SQUARED 0.465, read-out: LUCIFERASE INFECTION ASSAY - IC50): 4.34 µM
21 | COc1ccc(NC(=O)c2ccn[nH]2)cc1NC(=O)c1ccc(Cl)cc1F | 4.87 |  | IC50 (HEPG2TOX_HILL_SLOPE 3.17, HEPG2TOX_R_SQUARED 0.943, PBLUC_HILL_SLOPE 8.03, PBLUC_R_SQUARED 0.294, read-out: LUCIFERASE INFECTION ASSAY - IC50): 3.7 µM

Row | Structure (SMILES) | IC90 [µM] | IC50 [1] [µM] | also measured
22 | Cc1ccc(NC(=O)Nc2ccc(Cl)c(Cl)c2)nc1 | 9.58 |  | IC50 (PBLUC_HILL_SLOPE 3.93, PBLUC_R_SQUARED 0.477, read-out: LUCIFERASE INFECTION ASSAY - IC50): 5.48 µM
23 | Cc1cc2ccccn2c1C(=O)c1ccccc1Br | > 10 |  | IC50 (HEPG2TOX_HILL_SLOPE 6.22, HEPG2TOX_R_SQUARED 0.365, PBLUC_HILL_SLOPE 4.01, PBLUC_R_SQUARED 0.105, read-out: LUCIFERASE INFECTION ASSAY - IC50): 9.81 µM
24 | C/C(=N\NC(N)=S)c1csc(-c2ccccc2)n1 | 11.9 |  | IC50 (HEPG2TOX_HILL_SLOPE 1.53, HEPG2TOX_R_SQUARED 0.983, PBLUC_HILL_SLOPE 21.6, PBLUC_R_SQUARED 0.0721, read-out: LUCIFERASE INFECTION ASSAY - IC50): 10.7 µM
25 | CC(C)c1cccc(NS(=O)(=O)c2c[nH]c(C(=O)N3CCCC3)c2)c1 | > 10 |  | IC50 (HEPG2TOX_HILL_SLOPE 1.65, HEPG2TOX_R_SQUARED 0.259, read-out: LUCIFERASE INFECTION ASSAY - IC50): > 10 µM
26 | N#Cc1c(F)ccc(NC(=O)Nc2ccc(Cl)cc2)c1F | > 10.7 |  | IC50 (PBLUC_HILL_SLOPE 14.7, PBLUC_R_SQUARED 0.232, read-out: LUCIFERASE INFECTION ASSAY - IC50): 10.6 µM
27 | COc1ccc(CCNc2nc(CN3CCCC3)nc3sc(C)c(C)c23)cc1 | > 10 |  | IC50 (FFLUC_HILL_SLOPE 4.5, FFLUC_R_SQUARED 0.668, PBLUC_HILL_SLOPE 16.9, PBLUC_R_SQUARED 0.0613, read-out: LUCIFERASE INFECTION ASSAY - IC50): 9.78 µM
28 | CC/C(=N\OC(=O)c1cccc(C(F)(F)F)c1)c1ccc(-c2ccccc2F)cc1 | > 7.94 |  | IC50 (HEPG2TOX_HILL_SLOPE 1.72, HEPG2TOX_R_SQUARED 0.909, PBLUC_HILL_SLOPE 3.88, PBLUC_R_SQUARED 0.158, read-out: LUCIFERASE INFECTION ASSAY - IC50): 6.84 µM
29 | O=S(=O)(Nc1cc(C(F)(F)F)cc(C(F)(F)F)c1)c1ccccc1Oc1ccc(Cl)cc1Cl | > 6.22 |  | IC50 (FFLUC_HILL_SLOPE 40.5, FFLUC_R_SQUARED 0.634, read-out: LUCIFERASE INFECTION ASSAY - IC50): > 6.22 µM
30 | Cc1cc(C)c2nc(N(Cc3ccccc3)C(=O)c3nc(S(C)(=O)=O)ncc3Cl)sc2c1 | > 10 |  | IC50 (FFLUC_HILL_SLOPE 9.88, FFLUC_R_SQUARED 0.449, HEPG2TOX_HILL_SLOPE 6.61, HEPG2TOX_R_SQUARED 0.275, PBLUC_HILL_SLOPE 4.15, PBLUC_R_SQUARED 0.619, read-out: LUCIFERASE INFECTION ASSAY - IC50): 6.34 µM
31 | CCc1cccc(NC(=O)c2cc(C3CC3)nc3c2c(C)nn3C)c1 | > 10 | > 10 | 
32 | COc1ccc(-n2nc(C)c3c2NC(=O)CC3c2ccc(O)cc2)cc1 (centres undefined) | > 9.45 | > 9.45 | 
33 | Cc1ccccc1C(=O)N1CCC(C(=O)Oc2ccc(Cl)c3ccccc23)CC1 | > 10 | > 10 | 
34 | CCSc1nccc(-c2ccc3c(c2)CCC(C)(C)O3)n1 | 3.37 |  | IC50 (PBLUC_HILL_SLOPE 1.33, PBLUC_R_SQUARED 0.696, read-out: LUCIFERASE INFECTION ASSAY - IC50): 0.648 µM
35 | Cc1nc2ccccc2nc1SCC(=O)c1ccc(NS(C)(=O)=O)cc1 | > 10 |  | IC50 (FFLUC_HILL_SLOPE 1.05, FFLUC_R_SQUARED 0.177, HEPG2TOX_HILL_SLOPE 1.12, HEPG2TOX_R_SQUARED 0.682, read-out: LUCIFERASE INFECTION ASSAY - IC50): > 10 µM
36 | O=C1C(=O)N(Cc2cc3c(cc2Cl)OCO3)c2ccc(Cl)cc21 | > 9.42 |  | IC50 (FFLUC_HILL_SLOPE 2.77, FFLUC_R_SQUARED 0.777, PBLUC_HILL_SLOPE 11.7, PBLUC_R_SQUARED 0.0264, read-out: LUCIFERASE INFECTION ASSAY - IC50): 8.5 µM
37 | N=C1c2ccccc2CN1NC(=O)CCCOc1ccc(Cl)cc1Cl | 7.29 |  | IC50 (PBLUC_HILL_SLOPE 1.16, PBLUC_R_SQUARED 0.64, read-out: LUCIFERASE INFECTION ASSAY - IC50): 1.1 µM
38 | CCn1c2ccccc2c2cc(Nc3cc(-c4cc(OC)c(OC)c(OC)c4)ncn3)ccc21 | 1.29 |  | IC50 (HEPG2TOX_HILL_SLOPE 1.37, HEPG2TOX_R_SQUARED 0.859, PBLUC_HILL_SLOPE 1.98, PBLUC_R_SQUARED 0.713, read-out: LUCIFERASE INFECTION ASSAY - IC50): 0.426 µM
39 | O=C(NCCO)c1ccc(-c2cn3c(-c4ccc(Oc5ccccc5)cc4)cnc3cn2)cc1 | > 7.33 | > 7.33 | 
40 | CC1SC(=Nc2ccc(S(=O)(=O)N3CCOCC3)cc2)NN=C1C12CC3CC(CC(C3)C1)C2 (centres undefined) | > 10 | > 10 | 
41 | CCCn1c(NC(=O)c2sc3ccccc3c2Cl)nc2ccccc21 | > 10 | > 10 | 
42 | O=C(Nc1cccc(F)c1)C1(c2ccnc(Nc3ccc(C(F)(F)F)cc3)c2)CC1 | > 10 | > 10 | 
